Results on 16 molecules are retold here after PMC8655160, “Overcome Chemoresistance: Biophysical and Structural Analysis of Synthetic FHIT-Derived Peptides” (Frontiers in Molecular Biosciences, 2021).

For one assay, the target named is T1, ANXA4 (Homo sapiens, UniProt P09525).
T1 construct: purchased Genscript lot N. U8886ED090-5/P3ED001
T1 sequence (P09525 1-319): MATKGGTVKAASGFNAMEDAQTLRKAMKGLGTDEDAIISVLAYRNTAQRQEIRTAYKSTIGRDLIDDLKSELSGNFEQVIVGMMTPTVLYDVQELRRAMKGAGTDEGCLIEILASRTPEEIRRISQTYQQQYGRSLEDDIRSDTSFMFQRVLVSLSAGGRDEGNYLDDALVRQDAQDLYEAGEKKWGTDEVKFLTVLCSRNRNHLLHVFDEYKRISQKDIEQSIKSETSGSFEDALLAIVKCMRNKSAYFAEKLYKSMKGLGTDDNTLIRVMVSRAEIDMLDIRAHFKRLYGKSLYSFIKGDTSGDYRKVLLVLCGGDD
Nature of the assay: NanoDSF thermal unfolding of ANXA4 with peptides. The assay is classed as binding. The following applies: peptide 200 μM, protein 40 µM; for Tm (°C): ramp 20-95°C, Ctrl 48.5; for ΔTm at 200 µM: versus Ctrl. On the procedure: The assay was carried out in PBS (pH 7.4, 5 mM CaCl2) buffer using 40 μM of protein and 200 μM of compounds. The samples were loaded into nanoDSF Grade Standard Capillaries (NanoTemper Technologies) and analyzed using the Prometheus NT.48 nanoDSF device (NanoTemper Technologies). Thermal unfolding of the protein was monitored using a linear thermal ramp (1°C/min; 20°C–95°C) with an excitation power of 90%. […] In control, the sample was replaced with buffer solution. Three independent measurements were carried out for each compound, and their mean is depicted. The fluorescence intensity ratio and its first derivative were calculated with the manufacturer’s software (PR.ThermControl, version 2.1.2).
NanoDSF is an advanced differential scanning fluorimetry method for measuring melting temperature (Tm) of peptide-protein complex. In nanoDSF, a protein in solution is exposed to a temperature gradient that leads to the unfolding of the protein. The intrinsic fluorescence of the protein, mainly originating from the aromatic sidechains of tyrosine and tryptophan residues, is examined. Upon unfolding, the environment of those residues alters because they become exposed to the solvent and, thus, their fluorescence intensity changes. The relation between fluorescence intensity changes and temperature gradient can be used to obtain a so-called apparent Tm.
On the technique in general: DSF heats the sample and reads unfolding from a dye or from intrinsic fluorescence.

A further assay deals with A549 cells. Type of assay: cell-based. Conditions: peptide (100 μM) + paclitaxel (800 nM); 72 h. On the procedure:
A549 were grown in appropriate medium (Sigma Aldrich, St. Louis, MO) supplemented with 10% fetal bovine serum (FBS) (Sigma Aldrich, St. Louis, MO), 1% penicillin/streptomycin (Sigma Aldrich, St. Louis, MO) at 37°C in a 5% CO2 incubator. A549, adenocarcinoma cells line, were treated using a combo of paclitaxel (800 nM, PTX) and peptides (10 μM, 50 μM, 100 µM). After 24, 48, and 72 h, 10 μL/well of CTG detection mix, from CellTiter-Glo Assay Kit (Promega Corp, Madison, United States), were added; plates were gently mixed, incubated for 10 min in the dark, and read using EnVision Multilabel 2103.  FIGURE 8 Inhibition of A549 cell viability in cells treated with paclitaxel (800 nM) and peptides 1–8 (100 μM). Cells were plated in triplicate in 384-well plates and treated with PTX and peptides (DMSO was used as a […] control) for 24, 48, or 72 h. Cell viability was measured using CellTiter assay as described in the Materials and Methods section. Cell viability was expressed as a percentage of control and each column represents the mean ± SD of three independent experiments.

The test system of assay [1] is Annexin A4 translocation in A549 and Calu-2 lung cancer cells. Details: method as in Gaudio et al., 2013. The following applies: A549 and Calu-2 lung cancer cells treated with paclitaxel; ref Gaudio et al., 2013; cited from earlier work.
The target of assay [2] is T2, His-tag-ANXA4 (annexin A4) (UniProt P09525 1-319, in MST only: labelled with His-Tag Labeling Kit RED-tris-NTA (NT647 fluorophore)).
T2 construct: annexin A4 (ANXA4); Probably human ANXA4, since the work is on human lung cancer cells; also called NT647-ANXA4; ANX4; source: expressed by Genscript (lot N. U8886ED090-5/P3ED001); not shown: His6, C-terminal, kept
T2 sequence (looked up): T1 sequence (P09525 1-319)
Nature of the assay: SPR; Biacore T200; His-tag-ANXA4 captured on anti-histidine antibody coupled to CM5 chip; peptide 0.08-5 uM injected at 25 C, 30 uL/min, 120 s association, 600 s dissociation; HBS-P+ pH 7.4 with 5 mM CaCl2; global 1:1 fit, KD = kd/ka. The following applies: both partners purified. (In general: Surface plasmon resonance follows binding to a sensor surface in real time, without labels.)

Assay [3] concerns the target T3, His-tag-ANXA4 (annexin A4) (UniProt P09525 1-319, in MST only: labelled with His-Tag Labeling Kit RED-tris-NTA (NT647 fluorophore)).
T3 chain: T1 sequence (P09525 1-319)
Nature of the assay: SPR.

Assay [4] addresses T2, His-tag-ANXA4 (annexin A4). Nature of the assay: MST; Monolith NT.115pico; 40 nM NT647-labelled ANXA4 mixed 1:1 with serial dilutions of peptide (highest 50 uM); PBS pH 7.4, 5 mM CaCl2; 10 min at rt; standard-treated capillaries, high MST power, LED 10%; duplicates. The following applies: both partners purified.

What is called ΔTm is the shift of the melting midpoint relative to a reference. In the case of Ac-AHLIKPS-NH2 [peptide 8, AHLIKPS], at ANXA4, the “Tm (°C)” value worked out at 48.9 °C and the thermal shift (ΔTm) at 200 µM worked out at 0.4 °C. The “Biological activity in combination with paclitaxel compared to reference peptide 1 (in words)” value with A549 cells was “decrease of cell viability compared to reference peptide 1”.

On to Ac-QALIKPS-NH2 [peptide 7, QALIKPS], for which, on ANXA4, the “Tm (°C)” value is 49.1 °C and the ΔTm at 200 µM stood at 0.6 °C. Also, the “Biological activity in combination with paclitaxel compared to reference peptide 1 (in words)” value in the assay with A549 cells is given as “slightly improves the paclitaxel cytotoxicity”.

Ac-QHAIKPS-NH2 [peptide 6, QHAIKPS]: on ANXA4, the “Tm (°C)” value worked out at 48.9 °C and the ΔTm at 200 µM turned out to be 0.4 °C. Further, in the assay with A549 cells, the “Biological activity in combination with paclitaxel compared to reference peptide 1 (in words)” value is listed as “slightly improves the paclitaxel cytotoxicity”.

Ac-QHLAKPS-NH2 [compound 5, QHLAKPS]: on ANXA4, the “Tm (°C)” value was determined as 49.2 °C and the ΔTm at 200 µM turned out to be 0.7 °C.

In the case of Ac-QHLIAPS-NH2 [peptide 4, QHLIAPS], at ANXA4, the “Tm (°C)” value was 49.2 °C and the ΔTm at 200 µM worked out at 0.7 °C.

Regarding Ac-QHLIKAS-NH2 [peptide 3, QHLIKAS], the ΔTm at 200 µM at ANXA4 turned out to be 0.5 °C.

Take “Ac-QHLIKPA-NH2 (N-terminus and C-terminus assumed) [peptide 2, QHLIKPA]”: on ANXA4, the “Tm (°C)” value came out at 48.7 °C and the ΔTm at 200 µM was determined as 0.2 °C. For the same molecule, the “Biological activity in combination with paclitaxel compared to reference peptide 1 (in words)” value with A549 cells was “basically preserves the biological activity”.

Consider Ac-QHLIKPS-NH2 [peptide 1, QHLIKPS], for which, on ANXA4, the “Tm (°C)” value stood at 48.6 °C and the ΔTm at 200 µM worked out at 0.1 °C. Besides, in assay [1], the “Inhibition of Annexin A4 translocation from cytosol to plasma membrane” value was “inhibiting Annexin A4 translocation from cytosol to plasma membrane”.

B1: FHIT mimetic peptide 7-13 (peptide 1) (peptide)
peptide: Ac-QHLIKPS-NH2
notes: FHIT (fragile histidine triad protein), residues 7-13; also called FHIT (7-13); lead peptide; source: synthetic peptide (Fmoc solid phase, RP-HPLC purified)
As a reminder, the Kd is the concentration at which binding is half-saturated. High values mean weaker binding, low ones tighter binding. With B1, the dissociation constant Kd in assay [2] is 840 ± 50 nM; in assay [3], 1260 nM; in assay [4] it was 4650 nM.

B2: peptide 4 (QHLIAPS) (peptide)
peptide: Ac-QHLIAPS-NH2
notes: FHIT residues 7-13 with Lys5 of the peptide replaced by Ala; numbers count on: the peptide (residue 1 = Gln7 of FHIT); Lys5 is K11 of FHIT; also called analogue 4; source: synthetic peptide (Fmoc solid phase, RP-HPLC purified)
Regarding B2, the dissociation constant (Kd) is 53 ± 10 nM in assay [2] and 146 nM in assay [4].

B3: peptide 3 (QHLIKAS) (peptide)
peptide: Ac-QHLIKAS-NH2
notes: FHIT residues 7-13 with Pro6 of the peptide replaced by Ala; numbers count on: the peptide (residue 1 = Gln7 of FHIT); Pro6 is P12 of FHIT; also called analogue 3; source: synthetic peptide (Fmoc solid phase, RP-HPLC purified)
With B3, the values for the Kd in assay [2] and in assay [4] were 375 ± 20 nM and 14 nM, respectively.

B4: peptide 6 (QHAIKPS) (peptide)
peptide: Ac-QHAIKPS-NH2
notes: FHIT residues 7-13 with Leu3 of the peptide replaced by Ala; numbers count on: the peptide (residue 1 = Gln7 of FHIT); Leu3 is L9 of FHIT; also called derivative 6; source: synthetic peptide (Fmoc solid phase, RP-HPLC purified)
B4 registered a Kd in assay [4] of 6400 nM.

B5: peptide 8 (AHLIKPS) (peptide)
peptide: Ac-AHLIKPS-NH2
notes: FHIT residues 7-13 with Gln1 of the peptide replaced by Ala; numbers count on: the peptide (residue 1 = Gln7 of FHIT); Gln1 is Q7 of FHIT; also called analogue 8; source: synthetic peptide (Fmoc solid phase, RP-HPLC purified)
Turning to B5, the Kd in assay [2] is 1520 ± 330 nM; in assay [4], 3040 nM.

B6: peptide 2 (QHLIKPA) (peptide)
peptide: Ac-QHLIKPA-NH2
notes: FHIT residues 7-13 with Ser7 of the peptide replaced by Ala; numbers count on: the peptide (residue 1 = Gln7 of FHIT); Ser7 is S13 of FHIT; also called analogue 2; source: synthetic peptide (Fmoc solid phase, RP-HPLC purified)
Regarding B6, the Kd in assay [2] came to 552 ± 80 nM; in assay [4], 218 nM.

B7: peptide 5 (QHLAKPS) (peptide)
peptide: Ac-QHLAKPS-NH2
notes: FHIT residues 7-13 with Ile4 of the peptide replaced by Ala; numbers count on: the peptide (residue 1 = Gln7 of FHIT); Ile4 is I10 of FHIT; also called analogue 5; source: synthetic peptide (Fmoc solid phase, RP-HPLC purified)
For B7, in assay [4], the affinity, expressed as Kd, was 1410 nM.

B8: peptide 7 (QALIKPS) (peptide)
peptide: Ac-QALIKPS-NH2
notes: FHIT residues 7-13 with His2 of the peptide replaced by Ala; numbers count on: the peptide (residue 1 = Gln7 of FHIT); His2 is H8 of FHIT; also called derivative 7; source: synthetic peptide (Fmoc solid phase, RP-HPLC purified)
For B8, the Kd was 850 ± 55 nM in assay [2] and 1130 nM in assay [4].
